The supplement of paper PMC5908809

Key:
[1] = tested on: normal primary NK cells, pool 1 (3 donors), resting (IL-2 0 ng/mL); assay: percent inhibition of viability; higher = more inhibition; settings: 72 h
[2] = tested on: normal primary NK cells, pool 3 (3 donors) (IL-2 2.5 ng/mL); assay: as above; settings: 72 h
[3] = tested on: NK-YS (IL-2 2.5 ng/mL); assay: as above; settings: 72 h
[4] = tested on: KAI3 (IL-2 2.5 ng/mL); assay: as above; settings: 72 h
[5] = tested on: SNK-6 (IL-2 2.5 ng/mL); assay: as above; settings: 72 h
[6] = tested on: normal primary NK cells, pool 1 (3 donors) (IL-2 2.5 ng/mL); assay: as above; settings: 72 h
[7] = tested on: IMC-1 (IL-2 20 ng/mL); assay: as above; settings: 72 h
[8] = tested on: NK-92 (IL-2 2.5 ng/mL); assay: as above; settings: 72 h
[9] = tested on: normal primary NK cells, pool 2 (3 donors) (IL-2 2.5 ng/mL); assay: as above; settings: 72 h
[10] = tested on: DERL-7 (IL-2 2.5 ng/mL); assay: as above; settings: 72 h
[11] = tested on: YT (IL-2 2.5 ng/mL); assay: as above; settings: 72 h
[12] = tested on: NKL (IL-2 2.5 ng/mL); assay: as above; settings: 72 h
[13] = tested on: KHYG-1 (IL-2 2.5 ng/mL); assay: as above; settings: 72 h
[14] = tested on: normal NK cells expanded with K562-aAPC; assay: drug sensitivity score (DSS) (DSS units); higher = more sensitive; extreme values may be limits of the assay; settings: 72 h; IL-2 2.5 ng/mL
Description: (§1)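 Drug sensitivity and resistance testing on K562-aAPC-expanded normal NK cells: 5 concentrations (10-fold steps over a 10,000-fold range), 72 h at 37 °C, viability by CellTiter-Glo normalised to DMSO and benzethonium chloride controls; DSS from the fitted curve.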

[15] = tested on: normal NK cells expanded with K562-aAPC; assay: percent inhibition of viability; higher = more inhibition; settings: 72 h, IL-2 2.5 ng/mL
Description: as §1

[16] = tested on: normal primary NK cells, pool 1 (3 donors), resting (IL-2 0 ng/mL); assay: drug sensitivity score (DSS) (DSS units); higher = more sensitive; extreme values may be limits of the assay; settings: 72 h
[17] = tested on: normal primary NK cells, pool 3 (3 donors) (IL-2 2.5 ng/mL); assay: as above; settings: 72 h
[18] = tested on: NK-YS (IL-2 2.5 ng/mL); assay: as above; settings: 72 h
[19] = tested on: KAI3 (IL-2 2.5 ng/mL); assay: as above; settings: 72 h
[20] = tested on: SNK-6 (IL-2 2.5 ng/mL); assay: as above; settings: 72 h
[21] = tested on: normal primary NK cells, pool 1 (3 donors) (IL-2 2.5 ng/mL); assay: as above; settings: 72 h
[22] = tested on: IMC-1 (IL-2 20 ng/mL); assay: as above; settings: 72 h
[23] = tested on: NK-92 (IL-2 2.5 ng/mL); assay: as above; settings: 72 h
[24] = tested on: normal primary NK cells, pool 2 (3 donors) (IL-2 2.5 ng/mL); assay: as above; settings: 72 h
[25] = tested on: DERL-7 (IL-2 2.5 ng/mL); assay: as above; settings: 72 h
[26] = tested on: YT (IL-2 2.5 ng/mL); assay: as above; settings: 72 h
[27] = tested on: NKL (IL-2 2.5 ng/mL); assay: as above; settings: 72 h
[28] = tested on: KHYG-1 (IL-2 2.5 ng/mL); assay: as above; settings: 72 h

CC1(C)NC(=O)N(c2ccc([N+](=O)[O-])c(C(F)(F)F)c2)C1=O [Nilutamide] (max concentration tested 10000 nM)
percent inhibition of viability [%]
Settings | 1 nM | 10 nM | 100 nM | 1000 nM | 10000 nM
[1] | -1.3 | 10.6 | 10.3 | 9.07 | 18.9
[2] | 1.57 | 6.88 | 3.88 | -4.89 | -2.84
[3] | -5.09 | -3.33 | -3.78 | 3.59 | 17.6
[4] | 2 | 1.75 | 11.7 | 3.52 | 28.1
[5] | 33.2 | -24.8 | -17.7 | -22.5 | -4.35
[6] | -9.72 | 5.06 | -2.38 | 6.35 | 1.66
[7] | 0 | -0.12 | 2.93 | 3 | 40.4
[8] | -0.95 | -6.88 | 4.02 | -1.88 | 24.8
[9] | -2.69 | 6.11 | 0.2 | 1.25 | 3.42
[10] | -0.2 | -1.34 | 3.47 | -0.03 | 1.75
[11] | 0.36 | -6.16 | 5.94 | -0.37 | 25
[12] | 10.6 | 5.58 | 15.2 | 17.2 | 31.6
[13] | 24.8 | -7.14 | -0.73 | -1.75 | 15.3
[15] | -10 | -7.03 | -6.98 | -0.84 | 12.4

Settings | drug sensitivity score
[14] | 0.04
[16] | 1.43
[17] | 0
[18] | 0.84
[19] | 1.74
[20] | 0
[21] | 0
[22] | 2.47
[23] | 0.81
[24] | 0
[25] | 0
[26] | 0.93
[27] | 4.46
[28] | 0.08

O=c1sn(-c2cccc3ccccc23)c(=O)n1Cc1ccccc1 [Tideglusib] (max concentration tested 3000 nM)
percent inhibition of viability [%]
Settings | 0.3 nM | 3 nM | 30 nM | 300 nM | 3000 nM
[1] | 2.26 | 8.84 | 16.1 | 20.2 | 27.7
[2] | -6.37 | -9.25 | 6.54 | 6.09 | 5.7
[3] | -1.28 | -6.26 | -8.67 | -1.58 | 10.1
[4] | 4.52 | 0.51 | -8.06 | 2.48 | 28.9
[5] | -1.78 | 4.09 | -8.27 | 7.39 | 0.93
[6] | -1.89 | -5.16 | 15.6 | 9.54 | 6.41
[7] | -9.15 | -4.57 | -3.56 | -1.74 | 14.2
[8] | -5 | -12.7 | -13.7 | -11.8 | -1.4
[9] | -9.87 | -9.74 | -4.05 | -1.59 | 6.8
[10] | 0.33 | 8.56 | 5.78 | 9.73 | -4.19
[11] | 0.91 | -5.07 | -4.89 | -0.66 | 12.1
[12] | -0.96 | -13.4 | -11.3 | 4.69 | 13.7
[13] | 0.24 | -8.35 | -8.09 | -2.62 | 8.61
[15] | -6.95 | -7.17 | -3.75 | -3.95 | 10.8

Settings | drug sensitivity score
[14] | 0
[16] | 4.87
[17] | 0
[18] | 0
[19] | 1.59
[20] | 0
[21] | 0.12
[22] | 0.12
[23] | 0
[24] | 0
[25] | 0
[26] | 0.04
[27] | 0.46
[28] | 0

O=C(O)CCCc1ccc(N(CCCl)CCCl)cc1 [Chlorambucil] (max concentration tested 10000 nM)
percent inhibition of viability [%]
Settings | 1 nM | 10 nM | 100 nM | 1000 nM | 10000 nM
[1] | -14.6 | -7.61 | 2.57 | 19.2 | 88.2
[2] | -13.1 | -5.69 | -6.16 | -0.15 | 53
[3] | -6.87 | -0.61 | 3.17 | 13.6 | 84.7
[4] | -12.3 | 0 | 13 | 21.6 | 84.8
[5] | 9.02 | 25.1 | -1.14 | 10.8 | 92.4
[6] | -5.48 | -9.5 | 0.36 | 3.15 | 70.4
[7] | -7.26 | -1.26 | -5.09 | -7.21 | 20.6
[8] | -16.2 | -10.6 | -3.93 | -0.43 | 69.5
[9] | -11.7 | -6.52 | -4.85 | 1.94 | 69.2
[10] | -3.58 | -2.26 | -1.57 | 2.26 | 35.3
[11] | -0.58 | -2.33 | -2.72 | -5.92 | 9.19
[12] | -13 | -7.71 | -6.04 | 27.6 | 92.1
[13] | -4.53 | -1.14 | -2.99 | -0.01 | 59
[15] | -0.47 | -10 | -5.18 | -1.85 | 46.2

Settings | drug sensitivity score
[14] | 2.23
[16] | 7.95
[17] | 2.81
[18] | 6.96
[19] | 7.66
[20] | 6.91
[21] | 4.31
[22] | 0.4
[23] | 3.79
[24] | 4.06
[25] | 2
[26] | 0
[27] | 9.13
[28] | 3.19

CC1(COc2ccc3c(c2)ncn3-c2ccc3cccc(N4CCC(N)CC4)c3n2)COC1 [Crenolanib] (max concentration tested 10000 nM)
percent inhibition of viability [%]
Settings | 1 nM | 10 nM | 100 nM | 1000 nM | 10000 nM
[1] | -7.18 | -27.8 | -5.86 | -10.3 | 98.2
[2] | -13.7 | -6.99 | 10.3 | 22.4 | 100
[3] | -3.61 | -4.32 | -1.2 | 16.6 | 101
[4] | -3.85 | -6.78 | -18.2 | 10.7 | 102
[5] | 21.7 | 16.3 | 25 | 54.8 | 101
[6] | 2.4 | -5.93 | -3.03 | 22.4 | 100
[7] | -5.33 | 1.06 | 0.71 | 5.26 | 101
[8] | -3.46 | -7.66 | 2.06 | 50.1 | 102
[9] | -14.1 | -6.62 | 2.71 | 32 | 99.4
[10] | 9.4 | 0.68 | 2.82 | 50.6 | 101
[11] | 4.17 | 1.51 | 11.1 | 24.2 | 99.7
[12] | 12.4 | 0.04 | 22.6 | 53 | 103
[13] | 2.86 | -0.81 | 5.22 | 18.1 | 99.8
[15] | -3.71 | -1.22 | -0.36 | 37.5 | 101

Settings | drug sensitivity score
[14] | 10.6
[16] | 4.78
[17] | 9.06
[18] | 8.29
[19] | 7.36
[20] | 15.2
[21] | 9.05
[22] | 6.39
[23] | 11.7
[24] | 10.1
[25] | 11.6
[26] | 9.15
[27] | 13.3
[28] | 8.48

C[C@@H](C(=O)O)c1ccc(-c2ccccc2)c(F)c1 [Tarenflurbil] (max concentration tested 10000 nM)
percent inhibition of viability [%]
Settings | 1 nM | 10 nM | 100 nM | 1000 nM | 10000 nM
[1] | -0.07 | 18.2 | 4.52 | 11.8 | 8.75
[2] | -14.1 | -0.87 | -2.01 | -2.07 | 2.43
[3] | -4.2 | -2.88 | 4.93 | 1.37 | 11.5
[4] | -7.87 | -7.47 | 3.52 | 11.2 | 23.6
[5] | -1.12 | -28.7 | -23.7 | -16.9 | 14.1
[6] | 2 | 12.8 | 9.24 | 3.23 | 7.48
[7] | -1.05 | 0.62 | -1.4 | -6.55 | 2.74
[8] | -0.98 | -4.75 | -2.63 | 14.7 | 23.1
[9] | -7.01 | 3.47 | 9.98 | 6.83 | 1.08
[10] | 4.46 | 2.02 | -0.14 | 2.03 | -3.24
[11] | -2.12 | -10.1 | 2.14 | 4.49 | 14.9
[12] | -0.03 | -4.97 | 19.8 | 21.7 | 16.2
[13] | -3.32 | -5.74 | 0.55 | -0.63 | 6.21
[15] | -6.17 | -4.88 | -3.95 | 0.95 | 3.26

Settings | drug sensitivity score
[14] | 0
[16] | 0.07
[17] | 0
[18] | 0.07
[19] | 1.72
[20] | 0.04
[21] | 0
[22] | 0
[23] | 2.36
[24] | 0
[25] | 0
[26] | 0.47
[27] | 5.13
[28] | 0
